Experiment [1] relates to Pseudomonas bacterial cells. Briefly: Checkerboard of monochloramine and citric acid, bacterial growth in corn mash nutrient broth, 24-well plate (Example 1). The class given is cell-based. Set-up: Bacterial growth at 12 hr. / Bacterial growth at 14 hr.: key to the marks not given beside the values. Particulars: for Bacterial growth at 12 hr. / Bacterial growth at 14 hr.: 37° C., 600 nm. The method, then:
Laboratory experiments were performed to study the microbicidal efficacy of a combination of monochloramine with citric acid.
Pseudomonas bacterial cells were grown in nutrient broth media. The nutrient broth media comprised corn mash (35 wt %) and water. Appropriate amount of culture cells, monochloramine and/or citric acid were transferred into 24-well plate and incubated at 37° C. The 24-well plate layout held samples which contained monochloramine added in concentrations (ppm) of 0.00, 12.50, 50.00 and 100.00 in different rows of well samples, […], in different columns of well samples, in a checkerboard pattern, such as shown in Tables 1 and 2. Bacterial growth was monitored for each sample at 12 hours and 14 hours. Measurement was qualitative based upon measurement in a plate reader. A UV-VIS spectrophotometer was used at measurement wavelength 600 nm.

The subject of experiment [2] is Pseudomonas bacterial cells. Put plainly: Checkerboard of monochloramine and citric acid, OD 600 nm growth curves over 48 hours (Example 2, FIGS. 2-5). The class given is cell-based. The method, then:
In this study, Pseudomonas bacterial cells were grown in nutrient broth media. The nutrient broth media comprised corn mash (35 wt %) and water. Appropriate amount of culture cells, monochloramine and/or citric acid were transferred into 24-well plate and incubated at 37° C. for 48 hrs. in a plate reader. The 24-well plate layout held samples which contained monochloramine added in concentrations (ppm) of 0, 12.5, 50 and 100 ppm in different rows of well samples, and citric acid added in concentrations (ppm) of 0, 500, 3,000, 7,000, 10,000, and 20,000 in different columns of well samples, in a checkerboard pattern. Bacterial growth was monitored for each sample using a UV-VIS spectrophotometer to measure optical density (OD) (at measurement wavelength 600 nm) for the samples for 48 hours. The growth curves from the data are plotted in FIGS. 2-5.

In the case of `NCl` [Oxamine (MCA), monochloramine], the “inhibition of bacterial growth” value in experiment [1] (50 ppm monochloramine added individually) was “not inhibitory to bacterial growth”. Also, the “control of bacterial growth” value in experiment [1] (100 ppm MCA alone) is listed as “sufficient to control”. For the same compound, the “Bacterial growth at 12 hr.” value in experiment [1] (MCA 12.5 ppm, CA 0 ppm) is on record as “+++”; in experiment [1] (MCA 50 ppm, CA 0 ppm) it was “+++”. In addition, the “Bacterial growth at 14 hr.” value in experiment [1] (MCA 12.5 ppm, CA 0 ppm) is given as “+++”; in experiment [1] (MCA 50 ppm, CA 0 ppm), “+++”. For the same compound, the “control of bacteria growth (OD 600 nm growth curve)” value is listed as “no control of bacteria growth” in experiment [2] (12.5 ppm monochloramine alone, FIG. 3); “cells growth was delayed” in experiment [2] (50 ppm monochloramine alone, FIG. 4); “total inhibition of bacteria growth” in experiment [2] (100 ppm monochloramine without citric acid, FIG. 5).

In the case of `O=C(O)CC(O)(CC(=O)O)C(=O)O` [Citric acid (CA), citric acid], the “inhibition of bacterial growth” value in experiment [1] (10,000 ppm citric acid added individually (no MCA)) is “not inhibitory to bacterial growth”. Besides, the “Bacterial growth at 12 hr.” value was “+++” in experiment [1] (MCA 0 ppm, CA 500 ppm); “+++” in experiment [1] (MCA 0 ppm, CA 1000 ppm); “+++” in experiment [1] (MCA 0 ppm, CA 3000 ppm); “+++” in experiment [1] (MCA 0 ppm, CA 7000 ppm); “+++” in experiment [1] (MCA 0 ppm, CA 10000 ppm). For the same compound, the “Bacterial growth at 14 hr.” value was “+++” in experiment [1] (MCA 0 ppm, CA 500 ppm); “+++” in experiment [1] (MCA 0 ppm, CA 1000 ppm); “+++” in experiment [1] (MCA 0 ppm, CA 3000 ppm); “+++” in experiment [1] (MCA 0 ppm, CA 7000 ppm); “+++” in experiment [1] (MCA 0 ppm, CA 10000 ppm). Further, the “control of bacteria growth (OD 600 nm growth curve)” value in experiment [2] (citric acid alone, 500 to 20,000 ppm, no MCA, FIG. 2) is “not all of the evaluated citric acid concentrations controlled bacteria growth”.

Values taken from US20190230932A1, “Synergistic Combinations Of Monochloramine And Organic Acid, And Methods Of Using The Same For Microbial Control” (Buckman Laboratories International, Inc., priority 2018, published 2019).
